Laboratory results taken from ChEMBL document CHEMBL5120867, “Hernandezine Regulates Proliferation and Autophagy-Induced Apoptosis in Melanoma Cells” (J Nat Prod, 2022).
The source made the active and inactive calls. The calls are words filed in the database; no cut-off is given here.

What was measured:
NCI-H1299 = experiment: Cytotoxicity against human NCI-H1299 cells assessed as reduction in cell viability by MTT assay; format: functional, cell-based
HepG2 = experiment: Cytotoxicity against human HepG2 cells assessed as reduction in cell viability by MTT assay; format: functional, cell-based
A-375 [1] = experiment: Induction of cell cycle arrest in human A-375 cells assessed as accumulation at G0/G1 phase at 6 uM incubated for 24 hrs by PI staining based flow cytometry analysis (reference value: 69.68 %); format: functional
A-375 [2] = experiment: Induction of cell cycle arrest in human A-375 cells assessed as accumulation at S phase at 6 uM incubated for 24 hrs by PI staining based flow cytometry analysis (reference value: 28.83 %); format: functional
A-375 [3] = experiment: Induction of cell cycle arrest in human A-375 cells assessed as accumulation at G2/M phase at 7 uM incubated for 24 hrs by PI staining based flow cytometry analysis (reference value: 1.48 %); format: functional
A-375 [4] = experiment: Induction of cell cycle arrest in human A-375 cells assessed as accumulation at G2/M phase at 8 uM incubated for 24 hrs by PI staining based flow cytometry analysis (reference value: 1.48 %); format: functional
A-375 [5] = experiment: Upregulation of p53 accumulation in human A-375 cells at 6 to 8 uM measured after 12 to 24 hrs by western blot assay; format: functional, cell-based; conditions: dose 6-8 µM, time 12-24 hrs
[6] = biological target: Tyrosine-protein kinase JAK2 (Homo sapiens) (UniProt O60674); experiment: Inhibition of JAK2 phosphorylation in human A-375 cells assessed as decrease in phosphorylated JAK2 level at 6 to 8 uM measured after 12 to 24 hrs by Western blot analysis; format: cell-based; conditions: dose 6-8 µM, time 12-24 hrs
[7] = biological target: Signal transducer and activator of transcription 3 (Homo sapiens) (UniProt P40763); experiment: Inhibition of STAT3 phosphorylation in human A-375 cells assessed as decrease in phosphorylated STAT3 level at 6 to 8 uM measured after 12 to 24 hrs by Western blot analysis; format: cell-based; conditions: dose 6-8 µM, time 12-24 hrs
A-375 [8] = experiment: Induction of cell cycle arrest in human A-375 cells assessed as accumulation at G0/G1 phase incubated for 24 hrs in presence of AG490 by PI staining based flow cytometry analysis (reference value: 56.69 %); format: functional
B16 [9] = experiment: Cytotoxicity against mouse B16 cells assessed as reduction in cell viability incubated for 24 hrs by MTT assay; format: functional, cell-based; conditions: B16, 24 h
A-375 [10] = experiment: Cytotoxicity against human A-375 cells assessed as decrease in number of adherent cells at 6 to 8 uM incubated for 24 hrs by […] phase contrast microscope analysis; format: functional, cell-based; conditions: dose 6-8 µM
B16 [11] = experiment: Cytotoxicity against mouse B16 cells assessed as decrease in number of adherent cells at 5 to 7 uM incubated for 24 hrs by phase contrast microscope analysis; format: functional, cell-based; conditions: dose 5-7 µM
B16 [12] = experiment: Induction of cell cycle arrest in mouse B16 cells assessed as accumulation at G0/G1 phase at 7 uM incubated for 24 hrs by PI staining based flow cytometry analysis (reference value: 61.83 %); format: functional
B16 [13] = experiment: Induction of cell cycle arrest in mouse B16 cells assessed as accumulation at G0/G1 phase incubated for 24 hrs by PI staining based flow cytometry analysis (reference value: 56.59 %); format: functional
B16 [14] = experiment: Induction of cell cycle arrest in mouse B16 cells assessed as accumulation at G0/G1 phase incubated for 24 hrs in presence of AG490 by PI staining based flow cytometry analysis (reference value: 56.59 %); format: functional
A-375 [15] = experiment: Induction of apoptosis in human A-375 cells assessed as early apoptotic cells at 6 uM after 24 hrs by Annexin-V-FITC/PI-staining based flow cytometry (reference value: 1.4 %); format: functional
A-375 [16] = experiment: Induction of apoptosis in human A-375 cells assessed as chromatin condensation at 6 to 8 uM incubated for 24 hrs by Hoechst 33258 staining based fluorescence microscopy; format: functional, cell-based; conditions: dose 6-8 µM
A-375 [17] = experiment: Induction of autophagy in human A-375 cells assessed as decrease in LC3-I /LC3-II ratio at 7 uM incubated for 6 to 24 hrs by […]; format: functional, cell-based; conditions: time 6-24 hrs
A-375 [18] = experiment: Inhibition of autophagy in human A-375 cells harbouring mCherry-EGFP-LC3 assessed as increase in number of autophagosomes at 7 uM incubated for 8 to 24 hrs by laser scanning confocal microscopic analysis; format: functional, cell-based; conditions: time 8-24 hrs, TDE = time-dependent effect
A-375 [19] = experiment: Inhibition of autophagy in human A-375 cells harbouring mCherry-egfp-LC3 assessed as increase in proportion of autolysosome at 7 uM incubated for 8 to 24 hrs by laser scanning confocal microscopic analysis; format: functional, cell-based; conditions: time 8-24 hrs, TDE = time-dependent effect
A-375 [20] = experiment: Induction of autophagy in human A-375 cells assessed as increase in phosphorylated AMPK at 7 uM incubated for 6 to 24 hrs by Western blotting analysis; format: functional, cell-based; conditions: time 6-24 hrs
A-375 [21] = experiment: Induction of autophagy in human A-375 cells assessed as decrease in phosphorylated p70S6K level at 7 uM incubated for 6 to 24 hrs by Western blotting analysis; format: functional, cell-based; conditions: time 6-24 hrs
B16 [22] = experiment: Induction of apoptosis in mouse B16 cells assessed as chromatin condensation at 5 to 7 uM incubated for 24 hrs by Hoechst 33258 staining based fluorescence microscopy; format: functional, cell-based; conditions: dose 5-7 µM
B16 [23] = experiment: Induction of apoptosis in mouse B16 cells assessed as early apoptotic cells preincubated for 2 hrs with […] followed by compound addition and measured after 24 hrs by Annexin-V-FITC/PI-staining based flow cytometry (reference value: 0.9 %); format: functional
A-375 [24] = experiment: Induction of apoptosis in human A-375 cells assessed as early apoptotic cells preincubated for 2 hrs with 3-MA followed by compound addition and measured after 24 hrs by Annexin-V-FITC/PI-staining based flow cytometry (reference value: 3.1 %); format: functional

Sequence of Signal transducer and activator of transcription 3 (Homo sapiens) (P40763 whole entry): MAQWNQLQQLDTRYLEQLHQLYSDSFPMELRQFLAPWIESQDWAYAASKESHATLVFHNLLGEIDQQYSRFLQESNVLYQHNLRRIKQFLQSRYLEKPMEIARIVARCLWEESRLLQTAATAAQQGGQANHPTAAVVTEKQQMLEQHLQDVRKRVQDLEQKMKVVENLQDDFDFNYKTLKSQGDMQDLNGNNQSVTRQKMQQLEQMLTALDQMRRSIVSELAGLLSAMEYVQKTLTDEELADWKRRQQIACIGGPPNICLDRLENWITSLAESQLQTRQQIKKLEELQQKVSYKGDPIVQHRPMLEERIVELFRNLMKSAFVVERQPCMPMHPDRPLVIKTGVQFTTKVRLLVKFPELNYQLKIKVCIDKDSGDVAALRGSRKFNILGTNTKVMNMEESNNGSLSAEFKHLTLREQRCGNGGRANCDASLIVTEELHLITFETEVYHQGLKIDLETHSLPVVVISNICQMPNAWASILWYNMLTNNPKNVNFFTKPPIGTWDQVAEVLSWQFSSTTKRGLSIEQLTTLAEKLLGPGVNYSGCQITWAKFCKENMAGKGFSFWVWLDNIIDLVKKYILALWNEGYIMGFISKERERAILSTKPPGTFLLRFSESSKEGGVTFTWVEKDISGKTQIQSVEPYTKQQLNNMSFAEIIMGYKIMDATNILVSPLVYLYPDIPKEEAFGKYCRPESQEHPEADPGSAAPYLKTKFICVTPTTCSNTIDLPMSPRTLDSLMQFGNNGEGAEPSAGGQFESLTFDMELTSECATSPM
Sequence of Tyrosine-protein kinase JAK2 (Homo sapiens) (O60674 whole entry): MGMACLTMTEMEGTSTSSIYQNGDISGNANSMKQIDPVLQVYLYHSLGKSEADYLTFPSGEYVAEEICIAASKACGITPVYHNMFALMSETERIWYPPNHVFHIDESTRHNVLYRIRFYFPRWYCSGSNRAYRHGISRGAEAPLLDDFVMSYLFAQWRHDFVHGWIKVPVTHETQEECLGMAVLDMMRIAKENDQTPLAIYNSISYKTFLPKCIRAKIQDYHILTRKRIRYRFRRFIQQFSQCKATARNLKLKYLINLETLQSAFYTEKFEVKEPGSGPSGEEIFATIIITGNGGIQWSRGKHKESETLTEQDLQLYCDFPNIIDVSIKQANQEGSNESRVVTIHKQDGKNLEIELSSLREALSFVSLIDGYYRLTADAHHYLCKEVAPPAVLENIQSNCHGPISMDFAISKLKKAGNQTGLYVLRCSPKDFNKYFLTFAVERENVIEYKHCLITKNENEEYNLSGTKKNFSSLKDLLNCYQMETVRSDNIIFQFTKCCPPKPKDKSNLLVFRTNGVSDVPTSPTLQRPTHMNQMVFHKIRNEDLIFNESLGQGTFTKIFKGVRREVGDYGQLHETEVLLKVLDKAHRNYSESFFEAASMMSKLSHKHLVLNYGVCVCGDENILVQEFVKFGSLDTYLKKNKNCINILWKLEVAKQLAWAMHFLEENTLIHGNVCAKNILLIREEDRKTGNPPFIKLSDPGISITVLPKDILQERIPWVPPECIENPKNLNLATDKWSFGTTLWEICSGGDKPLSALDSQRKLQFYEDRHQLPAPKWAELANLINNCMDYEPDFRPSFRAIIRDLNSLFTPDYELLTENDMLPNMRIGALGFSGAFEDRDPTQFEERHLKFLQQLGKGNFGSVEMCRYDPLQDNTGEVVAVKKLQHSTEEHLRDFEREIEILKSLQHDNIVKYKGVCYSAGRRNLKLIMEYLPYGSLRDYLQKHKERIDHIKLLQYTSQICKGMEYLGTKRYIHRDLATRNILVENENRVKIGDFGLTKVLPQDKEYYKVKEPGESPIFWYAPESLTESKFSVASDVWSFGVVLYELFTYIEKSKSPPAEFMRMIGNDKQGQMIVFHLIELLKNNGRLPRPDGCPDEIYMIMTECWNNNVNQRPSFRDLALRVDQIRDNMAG

Compound `COc1ccc2cc1Oc1ccc(cc1)C[C@H]1c3cc(c(OC)cc3CCN1C)Oc1c(OC)c(OC)c(OC)c3c1[C@H](C2)N(C)CC3` [HERNANDEZINE] has an IC50 (NCI-H1299) of 6.74 µM, an IC50 (HepG2) of 7.42 µM and an Activity (A-375 [1]) of 76.28%. For the same compound, the Activity (A-375 [2]) was 22.28%, the Activity (A-375 [3]) was 6.77% and the Activity (A-375 [4]) was 1.24%. The Activity (A-375 [5]) was “Active”, the inhibition [6] was “Active” and the inhibition [7] was “Active”. The Activity (A-375 [8]) was 70.87%, the IC50 (B16 [9]) was 5.9 µM and the Activity (A-375 [10]) was “Active”. For the same compound, the Activity (B16 [11]) was “Active”, the Activity (B16 [12]) was 76.38% and the Activity (B16 [13]) was 78.59%. The Activity (B16 [14]) was 84.61%, the Activity (A-375 [15]) was 4.1% and the Activity (A-375 [16]) was “Active”. The Activity (A-375 [17]) was “Active”, the inhibition (A-375 [18]) was “Tde” and the inhibition (A-375 [19]) was “Tde”. For the same compound, the Activity (A-375 [20]) was “Active”, the Activity (A-375 [21]) was “Active” and the Activity (B16 [22]) was “Active”. For the same compound, the Activity (B16 [23]) was 14.4% and the Activity (A-375 [24]) was 10.1%.
